Source: patent US20010007017A1, “PEPTIDES WHICH REACT WITH ANTIBODY RE[…] […] FOR HIV DISEASE PROGRESSION” (priority 1996, published 2001)

Key:
[1] = tested on: NTM.V Ab in sera of HIV-positive and healthy individuals; assay: ELISA IgG reactivity toward NTM peptide, non-heat-inactivated versus heat-inactivated sera; type: binding, human; conditions: compared with the same heat-inactivated sera
Description: The antibody binding of individual patient sera (measured by ELISA assay for heat-inactivated sera dilution 1:100) was presented by single point.
(a) Healthy individuals, and (b) HIV-positive patients.
Reactivity of sera collected from the healthy HIV-negative as well as HIV-positive individuals was examined after heat-inactivation at 40° C. and 56° C. The heat treatment of sera was performed in duration of 10, 20 and 30 minutes. Based on the obtained results (FIG. 14), it can be concluded that release of the NTM.V Ab from immune complexes is temperature and time dependent. In these experiments IgG reactivity toward two forms of the NTM peptide were monitored, i.e. uncoupled and BSA-coupled forms. The reactivity patterns of both NTM forms were similar.

[2] = tested on: natural anti-VIP antibodies in sera of HIV-negative asthma patients; conditions: sera of HIV-negative asthma patients with high titres of natural anti-VIP antibodies; cited from earlier work
viral infection = conditions: cited from earlier work

Sequence	reactivity with non-heat-inactivated sera [1]	main end-point titre for hyperimmune sera [2]	reactivity of sera with the peptide [2]	blocking of viral infection (viral infection; in vivo as printed)	effect on lymphocyte function (viral infection; in vivo)
RSANFTDNAKTIIVQLNESVEIN [NTM, HIV-1 gp120-derived natural peptide]	very low reactivity	1/10000	strong reactivity		
VVVRSLTFKTNKKT				effectively blocks viral infection	without impairing lymphocyte function
